# Measured values from article PMC8900464 (Journal of medicinal chemistry, 2022).
# Key:
# [1] = tested on: total AKT (T-AKT); assay: Immunoblotting of total AKT in BT474 cells; assay type: cell-based; conditions: 24 h, western blot; for AKT (T-AKT) degradation: BT474 cells, 1, 5 and 10 μM
# [2] = tested on: P-AKT (S473), P-PRAS40 (T246), P-S6 (S240/244); assay: Immunoblotting of P-AKT and downstream signaling in BT474 cells; assay type: cell-based; conditions: 24 h
# [3] = tested on: BT474 cells; assay: Cell colony formation assay; assay type: cell-based; conditions: 14 days
# [4] = Mouse pharmacokinetic study; assay type: in vivo, mice; conditions: male, Swiss Albino, plasma, ip, 150 mg/kg
# [5] = tested on: T-AKT; assay: T-AKT degradation in PC3 cells; assay type: cell-based, human
# [6] = tested on: P-PRAS40, P-S6; assay: Downstream signaling in PC3 cells; conditions: 1 μM for 24 h, then washout, 24 h post-treatment
# [7] = tested on: PC3 cells; assay: Cell proliferation assay; assay type: cell-based, human; conditions: 5 days
# [8] = tested on: MDA-MB-468 cells; assay: Cell proliferation assay; assay type: cell-based; conditions: 5 days
# [9] = BT474 cells, 1, 5 and 10 μM, P-PRAS40 and P-S6, western blot
Compound,AKT (T-AKT) degradation [1],"downstream signaling inhibition [2, 9]",inhibition of colony formation [3],further results
"Cc1ncsc1-c1ccc(CNC(=O)[C@@H]2C[C@@H](O)CN2C(=O)[C@@H](NC(=O)CCCCCC(=O)N2CCN(CC[C@H](NC(=O)C3(N)CCN(c4ncnc5[nH]ccc45)CC3)c3ccc(Cl)cc3)CC2)C(C)(C)C)cc1 [Compound 15, 4-Amino-N-((S)-1-(4-chlorophenyl)-3-(4-(7-(((S)-1-((2S,4R)-4-hydroxy-2-((4-(4-methylthiazol-5-yl)benzyl)carbamoyl)pyrrolidin-1-yl)-3,3-dimethyl-1-oxobutan-2-yl)amino)-7-oxoheptanoyl)-piperazin-1-yl)propyl)-1-(7H-pyrrolo[2,3-d]pyrimidin-4-yl)-piperidine-4-carboxamide]",–,–,–,"AKT degradation ([1]; BT474 cells, 5 μM): improved AKT degradation; downstream signaling inhibition ([2]; BT474 cells, 5 μM, western blot): significant downstream signaling inhibition"
"Cc1ncsc1-c1ccc(CNC(=O)[C@@H]2C[C@@H](O)CN2C(=O)[C@@H](NC(=O)CCCCCCCCCC(=O)N2CCN(CC[C@H](NC(=O)C3(N)CCN(c4ncnc5[nH]ccc45)CC3)c3ccc(Cl)cc3)CC2)C(C)(C)C)cc1 [Compound 19, 4-Amino-N-((S)-1-(4-chlorophenyl)-3-(4-(11-(((S)-1-((2S,4R)-4-hydroxy-2-((4-(4-methylthiazol-5-yl)benzyl)carbamoyl)pyrrolidin-1-yl)-3,3-dimethyl-1-oxobutan-2-yl)amino)-11-oxoundecanoyl)-piperazin-1-yl)propyl)-1-(7H-pyrrolo[2,3-d]pyrimidin-4-yl)-piperidine-4-carboxamide]",most profound AKT degradation,most profound AKT degradation and downstream signaling inhibition,–,–
"Cc1ncsc1-c1ccc(CNC(=O)[C@@H]2C[C@@H](O)CN2C(=O)[C@@H](NC(=O)CCCCCCCCCCCC(=O)N2CCN(CC[C@H](NC(=O)C3(N)CCN(c4ncnc5[nH]ccc45)CC3)c3ccc(Cl)cc3)CC2)C(C)(C)C)cc1 [Compound 21, 4-Amino-N-((S)-1-(4-chlorophenyl)-3-(4-(13-(((S)-1-((2S,4R)-4-hydroxy-2-((4-(4-methylthiazol-5-yl)benzyl)carbamoyl)pyrrolidin-1-yl)-3,3-dimethyl-1-oxobutan-2-yl)amino)-13-oxotridecanoyl)-piperazin-1-yl)propyl)-1-(7H-pyrrolo[2,3-d]pyrimidin-4-yl)-piperidine-4-carboxamide]",–,slightly enhanced downstream signaling inhibition compared to 19,highly effective in inhibiting colony formation,–
"Cc1ncsc1-c1ccc([C@H](C)NC(=O)[C@@H]2C[C@@H](O)CN2C(=O)[C@@H](NC(=O)CCCCCCCCCC(=O)N2CCN(CC[C@H](NC(=O)C3(N)CCN(c4ncnc5[nH]ccc45)CC3)c3ccc(Cl)cc3)CC2)C(C)(C)C)cc1 [Compound 23, 4-Amino-N-((S)-1-(4-chlorophenyl)-3-(4-(11-(((S)-1-((2S,4R)-4-hydroxy-2-(((S)-1-(4-(4-methylthiazol-5-yl)phenyl)ethyl)carbamoyl)-pyrrolidin-1-yl)-3,3-dimethyl-1-oxobutan-2-yl)amino)-11-oxoundecanoyl)piperazin-1-yl)propyl)-1-(7H-pyrrolo[2,3-d]-pyrimidin-4-yl)piperidine-4-carboxamide]",did not show significant difference from 19,did not show significant difference from 19,did not show significant difference from 19,–
"NC1(C(=O)N[C@@H](CCN2CCN(C(=O)CCCNc3cccc4c3C(=O)N(C3CCC(=O)NC3=O)C4=O)CC2)c2ccc(Cl)cc2)CCN(c2ncnc3[nH]ccc23)CC1 (stereo partly drawn) [Compound 26, 4-Amino-N-((1S)-1-(4-chlorophenyl)-3-(4-(4-((2-(2,6-dioxopiperidin-3-yl)-1,3-dioxoisoindolin-4-yl)amino)butanoyl)piperazin-1-yl)-propyl)-1-(7H-pyrrolo[2,3-d]pyrimidin-4-yl)piperidine-4-carboxamide]",moderate effectiveness,moderate effectiveness,–,–
"NC1(C(=O)N[C@@H](CCN2CCN(C(=O)CCCCNc3cccc4c3C(=O)N(C3CCC(=O)NC3=O)C4=O)CC2)c2ccc(Cl)cc2)CCN(c2ncnc3[nH]ccc23)CC1 (stereo partly drawn) [Compound 27, 4-Amino-N-((1S)-1-(4-chlorophenyl)-3-(4-(5-((2-(2,6-dioxopiperidin-3-yl)-1,3-dioxoisoindolin-4-yl)amino)pentanoyl)piperazin-1-yl)propyl)-1-(7H-pyrrolo[2,3-d]pyrimidin-4-yl)piperidine-4-carboxamide]",moderate effectiveness,moderate effectiveness,–,–
"NC1(C(=O)N[C@@H](CCN2CCN(C(=O)CCCCCNc3cccc4c3C(=O)N(C3CCC(=O)NC3=O)C4=O)CC2)c2ccc(Cl)cc2)CCN(c2ncnc3[nH]ccc23)CC1 (stereo partly drawn) [Compound 28, 4-Amino-N-((1S)-1-(4-chlorophenyl)-3-(4-(6-((2-(2,6-dioxopiperidin-3-yl)-1,3-dioxoisoindolin-4-yl)amino)hexanoyl)piperazin-1-yl)-propyl)-1-(7H-pyrrolo[2,3-d]pyrimidin-4-yl)piperidine-4-carboxamide]",moderate effectiveness,moderate effectiveness,–,–
"NC1(C(=O)N[C@@H](CCN2CCN(C(=O)CCOCCOCCOCCOCCOCCNc3cccc4c3C(=O)N(C3CCC(=O)NC3=O)C4=O)CC2)c2ccc(Cl)cc2)CCN(c2ncnc3[nH]ccc23)CC1 (stereo partly drawn) [Compound 35, 4-Amino-N-((1S)-1-(4-chlorophenyl)-3-(4-(1-((2-(2,6-dioxopiperidin-3-yl)-1,3-dioxoisoindolin-4-yl)amino)-3,6,9,12,15-pentaoxaoctadecan-18-oyl)piperazin-1-yl)propyl)-1-(7H-pyrrolo[2,3-d]-pyrimidin-4-yl)piperidine-4-carboxamide]",–,–,–,"AUC [4]: 32500 ng·h/mL; Cmax [4]: 8 µM; Tmax [4]: 1 h; AKT protein level after washout ([5]; 1 μM for 24 h, then washout, 24 h post-treatment): rebounded substantially; T-AKT level after washout ([5]; 1 μM for 24 h, then washout, 48 h post-treatment): completely recovered; downstream signaling inhibition after washout [6]: near fully recovered; inhibition of phosphorylation of ribosomal protein S6 ([2]; BT474 cells, 1, 5 and 10 μM, among 32–38): most effective in inhibiting the phosphorylation of ribosomal protein S6"
"NC1(C(=O)N[C@@H](CCN2CCN(C(=O)CCOCCOCCOCCOCCOCCOc3cccc4c3C(=O)N(C3CCC(=O)NC3=O)C4=O)CC2)c2ccc(Cl)cc2)CCN(c2ncnc3[nH]ccc23)CC1 (stereo partly drawn) [Compound 40, 4-Amino-N-((1S)-1-(4-chlorophenyl)-3-(4-(1-((2-(2,6-dioxopiperidin-3-yl)-1,3-dioxoisoindolin-4-yl)oxy)-3,6,9,12,15-pentaoxaoctadecan-18-oyl)piperazin-1-yl)propyl)-1-(7H-pyrrolo[2,3-d]pyrimidin-4-yl)piperidine-4-carboxamide]",did not improve,–,did not improve,–
NC1(C(=O)N[C@@H](CCN2CCN(C(=O)CCOCCOCCOCCOCCOCCCc3cccc4c3C(=O)N(C3CCC(=O)NC3=O)C4=O)CC2)c2ccc(Cl)cc2)CCN(c2ncnc3[nH]ccc23)CC1 (stereo partly shown) [Compound 41],did not improve,–,did not improve,–
"CN1C(=O)CCC(N2C(=O)c3cccc(NCCOCCOCCOCCOCCOCCC(=O)N4CCN(CC[C@H](NC(=O)C5(N)CCN(c6ncnc7[nH]ccc67)CC5)c5ccc(Cl)cc5)CC4)c3C2=O)C1=O (stereo partly drawn) [Compound 43, 4-Amino-N-((1S)-1-(4-chlorophenyl)-3-(4-(1-((2-(1-methyl-2,6-dioxopiperidin-3-yl)-1,3-dioxoisoindolin-4-yl)amino)-3,6,9,12,15-pentaoxaoctadecan-18-oyl)piperazin-1-yl)propyl)-1-(7H-pyrrolo-[2,3-d]pyrimidin-4-yl)piperidine-4-carboxamide]",–,–,–,"GI50 [7]: inactive; T-AKT protein level ([5]; concentrations up to 10 μM, 24 h): did not reduce the T-AKT protein level; GI50 [8]: inactive"
"Cc1ncsc1-c1ccc(CNC(=O)[C@@H]2C[C@@H](O)CN2C(=O)[C@@H](N)C(C)(C)C)cc1 [VHL-1, (2S,4R)-1-[(S)-2-amino-3,3-dimethylbutanoyl]-4-hydroxy-N-[4-(4-methylthiazol-5-yl)benzyl]pyrrolidine-2-carboxamide, reference compound]",–,–,–,"T-AKT protein level ([1]; BT474 cells, 1 μM): no effect; downstream signaling (PRAS40 and S6 phosphorylation) ([2]; BT474 cells, 1 μM, western blot): no effect"
